According to US10385065B2, “Antibacterial compounds” (priority 2014, dated 2019):
Like-named read-outs stand apart in the source and are kept apart here.

Experiments:
Type in all cases: cell-based
[1] = tested on: Staphylococcus aureus ATCC 29213; test: MIC, broth microdilution, S. aureus ATCC 29213
[2] = tested on: Escherichia coli ATCC 25922; test: MIC, broth microdilution, E. coli ATCC 25922; settings: ATCC25922, Table 1, wild type strain
[3] = tested on: S. aureus NRS482 MRSA FQ resistant; test: MIC, S. aureus NRS482; settings: Staphylococcus aureus; Table 2
[4] = tested on: S. aureus SACPX1-SP25 MSSA - FQ resistant; test: microbe, parasite or virus in culture; settings: Staphylococcus aureus, ATCC 29213 / MSSA, read-out: MIC S. aureus SACPX1-SP25 MSSA - FQ resistant (isogenic mutant of ATCC 29213)
[5] = tested on: Enterococcus faecium ATCC 19434; test: MIC, E. faecium ATCC 19434; settings: ATCC19434, Table 2
[6] = tested on: Haemophilus influenzae ATCC 49247; test: MIC, H. influenzae ATCC 49247; settings: ATCC49247, Table 4
[7] = tested on: human hepatic cell line (HepG2 ATCC HB-8065); test: Human cell viability assay (CellTiter-Glo), HepG2; settings: HepG2, 24 h incubation, tested over 1-128 μg/mL, read-out: IC50 values against HepG2
Experimental: Compounds are assessed for potential non-specific cytotoxic effects against a human hepatic cell line (HepG2 ATCC HB-8065). HepG2 cells are seeded at 20,000 cells/well in 96-well microtitre plates in minimal essential medium (MEM) supplemented with a final concentration of 10% FBS and 1 mM sodium pyruvate. After 24 h compound dilutions are prepared in Dulbecco's minimum essential media (DMEM) supplemented with final concentrations of 0.001% FBS, 0.3% bovine albumin and 0.02% HEPES and added to cells. Compounds are tested in two-fold serial dilutions over a final concentration range of 1-128 μg/mL in a final DMSO concentration of 1% vol/vol. Chlorpromazine is used as a positive control. Cells are incubated with compound at 37° C. and 5% CO2 for a further 24 h, after which time the CellTiter-Glo reagent (Promega) is added. Luminescence is measured on a BMG Omega plate reader. Data are analysed using GraphPad Prism software to determine the concentration of compound that inhibits cell viability by fifty percent (IC50).

[8] = tested on: S. aureus (MRSA) ATCC 43300; test: MIC, S. aureus ATCC 43300; settings: Staphylococcus aureus; Table 2; read-out: MIC S. aureus (MRSA) ATCC 43300 Heterogeneous MRSA strain
[9] = tested on: S. aureus NRS1 MRSA; test: MIC, S. aureus NRS1; settings: Staphylococcus aureus; Table 2; read-out: MIC S. aureus NRS1 MRSA AMG & TET resistant
[10] = tested on: S. aureus NRS127 MRSA LZD resistant; test: MIC, S. aureus NRS127; settings: Staphylococcus aureus; Table 2
[11] = tested on: S. aureus VRS1 MRSA VAN resistant; test: MIC, S. aureus VRS1; settings: Staphylococcus aureus, Table 2
[12] = ATCC29213, Table 1, wild type strain, read-out: MIC S. aureus ATCC 29213
[13] = ATCC 29213 / MSSA, Table 2, read-out: MIC S. aureus (MSSA) ATCC 29213 CLSI control strain

CCn1c(=O)c2ncoc2c2ccc(-c3cc(F)c(N)cc3F)c(C)c21 [Compound 2, 7-(4-amino-2,5-difluoro-phenyl)-5-ethyl-6-methyl-oxazolo[4,5-c]quinolin-4-one]
> 100 µg/mL: MIC [2] | MIC [5]
1 to 10 µg/mL: MIC [1, 12] | MIC [1, 13] | MIC [3] | MIC [4]
10 to 100 µg/mL: MIC [6] | IC50 [7]

Cc1nc2c(=O)n(C3CC3)c3c(C)c(-c4cc(F)c(N)cc4F)ccc3c2o1 [Compound 4, 7-(4-amino-2,5-difluoro-phenyl)-5-cyclopropyl-2,6-dimethyl-oxazolo[4,5-c]quinolin-4-one]
> 100 µg/mL: MIC [5]
< 1 µg/mL: MIC [1, 12] | MIC [1, 13] | MIC [3] | MIC [8] | MIC [4] | MIC [10] | MIC [11] | MIC [6]
1 to 10 µg/mL: MIC [2] | MIC [9]
10 to 100 µg/mL: IC50 [7]

Cc1c(-c2cnc(N)nc2)ccc2c3ocnc3c(=O)n(C3CC3)c12 [Compound 14, 7-(2-aminopyrimidin-5-yl)-5-cyclopropyl-6-methyl-oxazolo[4,5-c]quinolin-4-one]
> 100 µg/mL: MIC [5]
< 1 µg/mL: MIC [1, 12] | MIC [1, 13]
10 to 100 µg/mL: MIC [2] | IC50 [7]
1 to 10 µg/mL: MIC [3] | MIC [8] | MIC [9] | MIC [4] | MIC [6]

Cc1c(-c2ccc3[nH]cnc3c2)ccc2c3ocnc3c(=O)n(C3CC3)c12 [Compound 15, 7-(1H-benzimidazol-5-yl)-5-cyclopropyl-6-methyl-oxazolo[4,5-c]quinolin-4-one]
10 to 100 µg/mL: MIC [2]
< 1 µg/mL: MIC [1, 12] | MIC [1, 13] | MIC [3] | MIC [10]
1 to 10 µg/mL: MIC [6]

CCOC(=O)CNC(=O)c1ccc(-c2ccc3c4ocnc4c(=O)n(C4CC4)c3c2C)cc1 [Compound 30, ethyl-2-[{4-(5-cyclopropyl-6-methyl-4-oxo-oxazolo[4,5-c]quinolin-7-yl)benzoyl}amino]acetate]
> 100 µg/mL: MIC [2] | MIC [5]
1 to 10 µg/mL: MIC [1, 12] | MIC [1, 13] | MIC [3] | MIC [8] | MIC [9] | MIC [10] | MIC [11] | MIC [6]
10 to 100 µg/mL: IC50 [7]

Cc1nc2c(=O)n(C3CC3)c3c(C)c(-c4cc(F)c(C(N)=O)cc4F)ccc3c2o1 [Compound 35, 4-(5-cyclopropyl-2,6-dimethyl-4-oxo-oxazolo[4,5-c]quinolin-7-yl)-2,5-difluoro-benzamide]
< 1 µg/mL: MIC [1, 12] | MIC [1, 13] | MIC [8]
10 to 100 µg/mL: MIC [5] | IC50 [7]
1 to 10 µg/mL: MIC [2] | MIC [3] | MIC [9] | MIC [6]

Cc1c(-c2ccc(N)c(F)c2)ccc2c3ocnc3c(=O)n(C3CC3)c12 [Compound 38, 7-(4-amino-3-fluorophenyl)-5-cyclopropyl-6-methyl-oxazolo[4,5-c]quinolin-4-one]
1 to 10 µg/mL: MIC [2] | MIC [3]
< 1 µg/mL: MIC [1, 12] | MIC [1, 13] | MIC [4] | MIC [6]
> 100 µg/mL: MIC [5] | IC50 [7]

Cc1nc2c(=O)n(C3CC3)c3cc(N4CCC(N)CC4)c(F)cc3c2o1 [Compound 49, 7-(4-amino-1-piperidyl)-5-cyclopropyl-8-fluoro-2-methyl-oxazolo[4,5-c]quinolin-4-one]
> 100 µg/mL: MIC [11]
10 to 100 µg/mL: MIC [3] | MIC [9] | MIC [10] | MIC [5] | IC50 [7]
1 to 10 µg/mL: MIC [1, 12] | MIC [1, 13] | MIC [2] | MIC [8] | MIC [6]

Cc1nc2c(=O)n(C3CC3)c3cc(N4CC[C@H](CN)C4)c(F)cc3c2o1 [Compound 52, 7-[(3R)-3-(aminomethyl)pyrrolidin-1-yl]-5-cyclopropyl-8-fluoro-2-methyl-oxazolo[4,5-c]quinolin-4-one]
1 to 10 µg/mL: MIC [1, 12] | MIC [1, 13] | MIC [2] | MIC [3] | MIC [9] | MIC [4] | MIC [10] | MIC [11] | MIC [6]
< 1 µg/mL: MIC [8]
10 to 100 µg/mL: MIC [5] | IC50 [7]

Cc1nc2c(=O)n(C3CC3)c3cc(-c4ccc(CN)c(F)c4)c(F)cc3c2o1 [Compound 76, 7-[4-(aminomethyl)-3-fluoro-phenyl]-5-cyclopropyl-8-fluoro-2-methyl-oxazolo[4,5-c]quinolin-4-one]
10 to 100 µg/mL: MIC [11] | MIC [5]
1 to 10 µg/mL: MIC [2] | MIC [3] | MIC [9] | MIC [10] | MIC [6]
< 1 µg/mL: MIC [1, 12] | MIC [1, 13] | MIC [8]

NC1CCN(c2nc3c(cc2F)c2ocnc2c(=O)n3C2CC2)C1 (stereo not drawn) [Compound 80, 7-(3-aminopyrrolidin-1-yl)-5-cyclopropyl-8-fluoro-oxazolo[4,5-c][1,8]naphthyridin-4-one]
10 to 100 µg/mL: MIC [4] | MIC [5] | MIC [6]
1 to 10 µg/mL: MIC [1, 12] | MIC [1, 13] | MIC [2]

C[C@H]1COc2c(-c3ccc(C(N)=O)cc3)ccc3c4ocnc4c(=O)n1c23 [Compound 96, 4-[(2S)-2-methyl-15-oxo-4,11-dioxa-1,13-diazatetracyclo[7.6.1.0^5,^16.0^10,^14]hexadeca-5(16),6,8,10(14),12-pentaen-6-yl]benzamide]
10 to 100 µg/mL: MIC [2] | MIC [5] | IC50 [7]
1 to 10 µg/mL: MIC [1, 12] | MIC [1, 13] | MIC [3] | MIC [8] | MIC [9] | MIC [10] | MIC [11] | MIC [6]

Cc1c(-c2cc(F)c(N)cc2F)ccc2c3oc(CO)nc3c(=O)n(C3CC3)c12 [Compound 99, 7-(4-amino-2,5-difluorophenyl)-5-cyclopropyl-2-(hydroxymethyl)-6-methyloxazolo[4,5-c]quinolin-4-one]
< 1 µg/mL: MIC [1, 12] | MIC [1, 13] | MIC [3] | MIC [8] | MIC [6]
1 to 10 µg/mL: MIC [2] | MIC [9] | MIC [10] | MIC [11]
